Values quoted from earlier work, collected in patent publication US6414126B1, “C-aryl glucoside SGLT2 inhibitors and method” (Bristol-Myers Squibb Company, priority 1999, dated 2002).

Tests used:
human SGLT2 = target: T1, human SGLT2 (Homo sapiens, UniProt P31639); conditions: SGLT2 transporter; read-out: Km values for uptake
T1 sequence (P31639 1-672): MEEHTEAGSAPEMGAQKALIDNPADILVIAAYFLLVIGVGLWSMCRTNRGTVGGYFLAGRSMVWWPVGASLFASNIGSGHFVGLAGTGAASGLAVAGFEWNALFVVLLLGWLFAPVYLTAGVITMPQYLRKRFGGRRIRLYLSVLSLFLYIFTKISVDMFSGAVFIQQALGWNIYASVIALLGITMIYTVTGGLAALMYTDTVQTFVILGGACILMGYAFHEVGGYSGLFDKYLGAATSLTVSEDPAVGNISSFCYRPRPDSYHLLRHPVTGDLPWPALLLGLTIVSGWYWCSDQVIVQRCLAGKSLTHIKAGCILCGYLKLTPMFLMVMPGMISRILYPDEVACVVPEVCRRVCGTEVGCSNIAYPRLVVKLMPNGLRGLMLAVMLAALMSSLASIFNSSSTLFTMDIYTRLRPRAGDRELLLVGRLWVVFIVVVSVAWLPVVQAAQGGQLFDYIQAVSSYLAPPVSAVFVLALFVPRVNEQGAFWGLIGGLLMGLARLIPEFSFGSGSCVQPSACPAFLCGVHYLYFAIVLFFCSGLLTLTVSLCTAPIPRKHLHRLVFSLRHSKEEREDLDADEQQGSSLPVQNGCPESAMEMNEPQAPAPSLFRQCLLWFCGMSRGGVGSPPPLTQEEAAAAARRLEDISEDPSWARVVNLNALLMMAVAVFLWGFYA

human SGLT1 = target: T2, human SGLT1 (Homo sapiens, UniProt P13866); conditions: SGLT1 transporter; read-out: Km values for uptake
T2 sequence (P13866 1-664): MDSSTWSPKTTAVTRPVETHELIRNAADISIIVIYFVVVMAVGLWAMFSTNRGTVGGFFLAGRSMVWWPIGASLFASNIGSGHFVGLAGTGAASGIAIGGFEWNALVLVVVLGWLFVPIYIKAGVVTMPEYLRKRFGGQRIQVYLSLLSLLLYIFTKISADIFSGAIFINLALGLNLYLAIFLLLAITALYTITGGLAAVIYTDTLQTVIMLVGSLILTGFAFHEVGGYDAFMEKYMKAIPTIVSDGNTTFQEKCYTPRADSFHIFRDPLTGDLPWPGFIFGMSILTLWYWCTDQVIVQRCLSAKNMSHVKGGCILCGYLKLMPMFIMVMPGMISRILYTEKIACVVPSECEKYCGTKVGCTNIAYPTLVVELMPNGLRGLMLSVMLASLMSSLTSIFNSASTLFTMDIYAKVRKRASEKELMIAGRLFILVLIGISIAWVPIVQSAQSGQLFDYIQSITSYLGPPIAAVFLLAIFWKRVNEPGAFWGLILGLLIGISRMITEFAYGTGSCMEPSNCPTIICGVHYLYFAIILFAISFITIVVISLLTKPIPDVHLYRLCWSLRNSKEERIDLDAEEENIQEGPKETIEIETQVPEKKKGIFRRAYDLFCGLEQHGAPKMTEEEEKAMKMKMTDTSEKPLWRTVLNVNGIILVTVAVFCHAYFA

In the case of `CO[C@H]1O[C@H](CO)[C@@H](O)[C@H](O)[C@H]1O` [AMG, α-methyl-D-glucopyranoside], the Km (human SGLT2) is given as 1.6 mM and the Km (human SGLT1) is given as 400 µM.
